The test system of assay [1] is Blumeria graminis f. sp. hordei. The experiment in a line: Test Example D: Powdery mildew on barley. Conditions: Powdery mildew on barley; control value class.
A further assay has as its system Puccinia recondita. The experiment in a line: Test Example E: Brown rust on wheat. In kind it is in vivo. Conditions: Brown rust on wheat; control value class.
For the next assay, the system named is Phytophthora infestans. The experiment in a line: whole plant or invertebrate. In kind it is in vivo. Conditions: Late blight on tomato; control value class.
The test system of a further assay is Alternaia brassicicola. The experiment in a line: Test Example C: Alternaria sooty spot on cabbage. The class given is in vivo. To be noted: Alternaria sooty spot on cabbage; control value class. The text has this: Seeds of a test plant (cabbage variety: Shikidori) were planted and cultivated until the cotyledons extended.
<Control Value> Control value=100{1−(n/3)}

The next assay has as its system Plasmopara viticola. The experiment in a line: Test Example G: Downy mildew on vine. Conditions: Downy mildew on vine; 250 ppm spray, 7 to 10 days after inoculation.
A further assay concerns Botrytis cinerea. The assay can be described thus: Test Example B: Gray mold on tomato. To be noted: Gray mold on tomato; control value class.
The test system of assay [2] is Colletotrichum orbiculare. The experiment in a line: Test Example H: Anthracnose on cucumber. To be noted: Anthracnose on cucumber; 250 ppm spray, 6 to 10 days after inoculation.
The next assay concerns Magnaporthe grisea. The assay can be described thus: whole plant or invertebrate. In kind it is in vivo. To be noted: Blast on rice; control value class.

Results on 14 compounds are retold here after patent US11147272B2, “Pyridone compounds and agricultural and horticultural fungicides comprising the same as active ingredients” (MITSUI CHEMICALS AGRO, INC., priority 2017, dated 2021).

With `CCn1c(-c2ccc(F)cc2Cl)c(C)cc(Br)c1=O` [compound 281], the “Test D control value” in assay [1] is recorded as “H (more than 50% control value)”. Also, the “Test E control value” in the assay with Puccinia recondita is listed as “H (more than 50% control value)”. The “Test F control value” in the assay with Phytophthora infestans is “L (50% or less control value)”. For the same compound, the “Test C control value” in the assay with Alternaia brassicicola was “L (50% or less control value)”. Moreover, in the assay on Plasmopara viticola, the “Test G control value” is recorded as “L (50% or less control value)”. Further, in the assay on Botrytis cinerea, the “Test B control value” is listed as “H (more than 50% control value)”. Also, the “Test H control value” in assay [2] is “H (more than 50% control value)”. In addition, the “Test A control value” in the assay with Magnaporthe grisea is reported as “L (50% or less control value)”.

As to `CCCCCCC1=C(c2ccc(F)cc2Cl)N(CC)C(=O)CC1` [compound 282], the “Test D control value” in assay [1] was “H (more than 50% control value)”. In addition, the “Test E control value” in the assay with Puccinia recondita was “L (50% or less control value)”. In addition, the “Test F control value” with Phytophthora infestans was “L (50% or less control value)”. In the assay with Alternaia brassicicola, the “Test C control value” is given as “L (50% or less control value)”. In addition, the “Test G control value” in the assay with Plasmopara viticola was “L (50% or less control value)”. For the same compound, the “Test B control value” in the assay on Botrytis cinerea was “L (50% or less control value)”. Further, the “Test H control value” in assay [2] is listed as “L (50% or less control value)”. Further, the “Test A control value” in the assay on Magnaporthe grisea is recorded as “L (50% or less control value)”.

As for `C#CC(O)c1cc(Cl)c(=O)n(CC)c1-c1c(F)cc(F)cc1F` (stereo not shown) [compound 283], in assay [1], the “Test D control value” was “L (50% or less control value)”. For the same compound, the “Test E control value” in the assay on Puccinia recondita was “H (more than 50% control value)”. Moreover, in the assay on Phytophthora infestans, the “Test F control value” is on record as “L (50% or less control value)”. In addition, the “Test C control value” in the assay with Alternaia brassicicola is “H (more than 50% control value)”. The “Test G control value” in the assay with Plasmopara viticola is given as “L (50% or less control value)”. Besides, the “Test B control value” in the assay on Botrytis cinerea was “H (more than 50% control value)”. Moreover, the “Test H control value” in assay [2] is reported as “H (more than 50% control value)”. The “Test A control value” in the assay with Magnaporthe grisea is on record as “L (50% or less control value)”.

Consider `C#CC(=O)c1cc(Cl)c(=O)n(CC)c1-c1c(F)cc(F)cc1F` [compound 284], for which the “Test D control value” in assay [1] was “H (more than 50% control value)”. Besides, the “Test E control value” in the assay with Puccinia recondita was “H (more than 50% control value)”. Moreover, the “Test F control value” with Phytophthora infestans is on record as “H (more than 50% control value)”. In the assay on Alternaia brassicicola, the “Test C control value” is listed as “H (more than 50% control value)”. In addition, the “Test G control value” in the assay on Plasmopara viticola was “H (more than 50% control value)”. The “Test B control value” with Botrytis cinerea is recorded as “H (more than 50% control value)”. For the same compound, the “Test H control value” in assay [2] was “H (more than 50% control value)”. In addition, the “Test A control value” in the assay on Magnaporthe grisea was “L (50% or less control value)”.

Turning to `C#CC(OC)c1cc(Cl)c(=O)n(CC)c1-c1c(F)cc(F)cc1F` (stereo not shown) [compound 285], the “Test D control value” in assay [1] was “H (more than 50% control value)”. For the same compound, the “Test E control value” with Puccinia recondita is on record as “H (more than 50% control value)”. Further, the “Test F control value” with Phytophthora infestans was “L (50% or less control value)”. For the same compound, the “Test C control value” with Alternaia brassicicola is given as “H (more than 50% control value)”. Moreover, the “Test G control value” in the assay on Plasmopara viticola is “L (50% or less control value)”. For the same compound, the “Test B control value” with Botrytis cinerea is given as “H (more than 50% control value)”. The “Test H control value” in assay [2] was “H (more than 50% control value)”. Besides, in the assay on Magnaporthe grisea, the “Test A control value” was “H (more than 50% control value)”.

As to `C#CC(F)c1cc(Cl)c(=O)n(CC)c1-c1c(F)cc(F)cc1F` (stereo not shown) [compound 286], the “Test D control value” in assay [1] is reported as “L (50% or less control value)”. In addition, the “Test E control value” in the assay on Puccinia recondita is “H (more than 50% control value)”. Also, the “Test F control value” with Phytophthora infestans is on record as “L (50% or less control value)”. The “Test C control value” in the assay on Alternaia brassicicola was “H (more than 50% control value)”. Further, the “Test G control value” in the assay with Plasmopara viticola is given as “L (50% or less control value)”. For the same compound, the “Test B control value” in the assay with Botrytis cinerea is on record as “H (more than 50% control value)”. Besides, in assay [2], the “Test H control value” is “H (more than 50% control value)”. Also, the “Test A control value” in the assay on Magnaporthe grisea was “L (50% or less control value)”.

As for `CCn1c(-c2ccc(OC)cc2)c(C=O)cc(Cl)c1=O` [compound 287], the “Test D control value” in assay [1] is reported as “L (50% or less control value)”. Further, in the assay on Puccinia recondita, the “Test E control value” was “L (50% or less control value)”. Besides, in the assay on Phytophthora infestans, the “Test F control value” was “L (50% or less control value)”. In the assay on Alternaia brassicicola, the “Test C control value” is recorded as “H (more than 50% control value)”. For the same compound, in the assay on Plasmopara viticola, the “Test G control value” is “L (50% or less control value)”. Moreover, in the assay with Botrytis cinerea, the “Test B control value” is given as “L (50% or less control value)”. For the same compound, in assay [2], the “Test H control value” is given as “L (50% or less control value)”. The “Test A control value” in the assay with Magnaporthe grisea is reported as “L (50% or less control value)”.

As for `CCn1c(-c2ccc(C#N)cc2)c(C=O)cc(Cl)c1=O` [compound 288], in assay [1], the “Test D control value” is reported as “L (50% or less control value)”. In addition, the “Test E control value” in the assay with Puccinia recondita is recorded as “L (50% or less control value)”. In the assay with Phytophthora infestans, the “Test F control value” was “L (50% or less control value)”. Besides, in the assay on Alternaia brassicicola, the “Test C control value” is “H (more than 50% control value)”. The “Test G control value” with Plasmopara viticola is “L (50% or less control value)”. Besides, in the assay on Botrytis cinerea, the “Test B control value” was “L (50% or less control value)”. Besides, in assay [2], the “Test H control value” was “L (50% or less control value)”. Besides, the “Test A control value” in the assay on Magnaporthe grisea is given as “L (50% or less control value)”.

With `CCn1c(-c2ccc(F)cc2)c(C=O)cc(Cl)c1=O` [compound 290], the “Test D control value” in assay [1] is reported as “L (50% or less control value)”. Also, the “Test E control value” in the assay with Puccinia recondita is listed as “L (50% or less control value)”. In addition, the “Test F control value” in the assay on Phytophthora infestans is reported as “H (more than 50% control value)”. The “Test C control value” in the assay with Alternaia brassicicola is “H (more than 50% control value)”. Further, in the assay on Plasmopara viticola, the “Test G control value” is “L (50% or less control value)”. Moreover, in the assay on Botrytis cinerea, the “Test B control value” is “L (50% or less control value)”. Moreover, in assay [2], the “Test H control value” is on record as “L (50% or less control value)”. The “Test A control value” in the assay on Magnaporthe grisea is listed as “L (50% or less control value)”.

Take `CCCCCCc1ccc(=O)n(CC)c1-c1ccc(F)cc1Cl` [compound 291]: the “Test D control value” in assay [1] is on record as “H (more than 50% control value)”. The “Test E control value” with Puccinia recondita is given as “H (more than 50% control value)”. The “Test F control value” in the assay on Phytophthora infestans was “L (50% or less control value)”. For the same compound, the “Test C control value” with Alternaia brassicicola is reported as “L (50% or less control value)”. In addition, the “Test G control value” in the assay on Plasmopara viticola was “L (50% or less control value)”. The “Test B control value” in the assay with Botrytis cinerea is given as “L (50% or less control value)”. In assay [2], the “Test H control value” was “H (more than 50% control value)”. Further, in the assay on Magnaporthe grisea, the “Test A control value” was “L (50% or less control value)”.

`CCCCCCc1cc(Cl)c(=O)n(CC)c1-c1ccc(F)cc1Cl` [compound 292]: the “Test D control value” in assay [1] is “H (more than 50% control value)”. Further, in the assay with Puccinia recondita, the “Test E control value” is “L (50% or less control value)”. For the same compound, the “Test F control value” with Phytophthora infestans was “L (50% or less control value)”. For the same compound, the “Test C control value” in the assay on Alternaia brassicicola was “H (more than 50% control value)”. For the same compound, the “Test G control value” in the assay with Plasmopara viticola is given as “L (50% or less control value)”. Moreover, the “Test B control value” in the assay on Botrytis cinerea is “H (more than 50% control value)”. Besides, the “Test H control value” in assay [2] is “L (50% or less control value)”. Further, in the assay on Magnaporthe grisea, the “Test A control value” is recorded as “L (50% or less control value)”.

Take `CCCCCCc1cc(Br)c(=O)n(CC)c1-c1ccc(F)cc1Cl` [compound 293]: the “Test D control value” in assay [1] was “H (more than 50% control value)”. Besides, the “Test E control value” in the assay on Puccinia recondita is recorded as “L (50% or less control value)”. Besides, the “Test F control value” in the assay with Phytophthora infestans is recorded as “L (50% or less control value)”. Besides, the “Test C control value” in the assay on Alternaia brassicicola is listed as “H (more than 50% control value)”. Further, the “Test G control value” in the assay on Plasmopara viticola is recorded as “L (50% or less control value)”. Also, the “Test B control value” in the assay on Botrytis cinerea is given as “L (50% or less control value)”. Besides, the “Test H control value” in assay [2] is “L (50% or less control value)”. Besides, the “Test A control value” in the assay with Magnaporthe grisea is “L (50% or less control value)”.

In the case of `CCn1c(-c2ccc(F)cc2Cl)c(C=O)cc(Cl)c1=O` [compound 294], the “Test D control value” in assay [1] is given as “L (50% or less control value)”. The “Test E control value” with Puccinia recondita was “H (more than 50% control value)”. Further, the “Test F control value” in the assay on Phytophthora infestans is listed as “L (50% or less control value)”. Moreover, the “Test C control value” in the assay with Alternaia brassicicola is “H (more than 50% control value)”. Besides, in the assay on Plasmopara viticola, the “Test G control value” is listed as “H (more than 50% control value)”. Also, the “Test B control value” in the assay with Botrytis cinerea was “H (more than 50% control value)”. Further, in assay [2], the “Test H control value” was “L (50% or less control value)”. Besides, the “Test A control value” with Magnaporthe grisea is reported as “L (50% or less control value)”.

Regarding `C=Cc1cc(Cl)c(=O)n(CC)c1-c1ccc(F)cc1Cl` [compound 295], in assay [1], the “Test D control value” was “H (more than 50% control value)”. Besides, the “Test E control value” with Puccinia recondita is listed as “H (more than 50% control value)”. Also, the “Test F control value” in the assay with Phytophthora infestans is listed as “H (more than 50% control value)”. Further, the “Test C control value” with Alternaia brassicicola is “H (more than 50% control value)”. The “Test G control value” in the assay with Plasmopara viticola is recorded as “L (50% or less control value)”. Further, the “Test B control value” in the assay on Botrytis cinerea is “H (more than 50% control value)”. Moreover, in assay [2], the “Test H control value” is reported as “L (50% or less control value)”. Besides, the “Test A control value” with Magnaporthe grisea is listed as “L (50% or less control value)”.
